Our source for the Kd and stoichiometry N values is publication PMC5983862, “Insight into small molecule binding to the neonatal Fc receptor by X-ray crystallography and 100 kHz magic-angle-spinning NMR” (PLoS Biology, 2018).

In assay [1] the target is T1, neonatal Fc receptor (FcRn) α-chain, extracellular domain (FcRnECD) (Homo sapiens, UniProt P55899+P61769).
T1 construct: gene FCGRT; extracellular domain (ECD) (amino acids 1–297) of human FcRn α-chain, with human β2m; with β2-microglobulin (β2m, B2M)
T1 sequence (P55899 24-297): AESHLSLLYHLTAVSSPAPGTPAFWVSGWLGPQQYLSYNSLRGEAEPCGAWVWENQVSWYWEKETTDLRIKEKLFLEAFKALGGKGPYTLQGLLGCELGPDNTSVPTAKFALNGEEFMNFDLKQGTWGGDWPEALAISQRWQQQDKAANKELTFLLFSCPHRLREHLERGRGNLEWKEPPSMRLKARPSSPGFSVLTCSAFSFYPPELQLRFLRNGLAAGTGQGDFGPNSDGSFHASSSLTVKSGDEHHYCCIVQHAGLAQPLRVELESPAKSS
T1 sequence (P61769 21-119): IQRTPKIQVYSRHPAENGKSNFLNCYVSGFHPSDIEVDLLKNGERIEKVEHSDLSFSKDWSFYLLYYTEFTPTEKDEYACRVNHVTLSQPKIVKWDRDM
The assay can be described thus: SPR Kd; X-ray crystal structure; MAS NMR chemical-shift perturbations. It counts as binding.

Assay [2] has as its target T1, neonatal Fc receptor (FcRn) α-chain, extracellular domain (FcRnECD). The assay can be described thus: affinity measurement (SPR implied). Format: binding.
Assay [3] deals with soluble extracellular domain of the neonatal Fc receptor (FcRnECD), heterodimer of α-chain and β2m, from insect cells (human). The assay can be described thus: crystal structure; FcRnECD from insect cells; crystals at pH 3 (PEG 6000, citric acid/ammonium citrate) and at pH 8.5 (Bis-Tris propane, NaI, PEG 3350); compounds soaked into pH 3 crystals; two heterodimers in the asymmetric unit.

For assay [4], the target named is T1, neonatal Fc receptor (FcRn) α-chain, extracellular domain (FcRnECD). The assay can be described thus: SPR Kd; X-ray crystal structure; […] CPMG and STD NMR fragment screen. It counts as binding.

One may read the pKd as −log10 of the Kd, conventionally taken in molar units. Usually stoichiometry N stands for a count of units in the complex or per binding partner.

pKd: −log10 of the molar value.

With `COC(=O)C1=C(c2cccnc2)Nc2ncnn2C1c1cc(F)cc(F)c1` (stereo not shown) [UCB-FcRn-303, Methyl 7-(3,5-difluorophenyl)-5-(3-pyridyl)-4,7-dihydro-[1,2,4]triazolo[1,5-a]pyrimidine-6-carboxylate], in assay [1], the pKd was 5.62.

As to `CC(=O)C1=C(C)Nc2ncnn2C1c1cc(F)cc(F)c1` (racemic) [1-[7-(3,5-Difluorophenyl)-5-methyl-4,7-dihydro-[1,2,4]triazolo[1,5-a]pyrimidin-6-yl]ethanone], the pKd in assay [2] was 5.62.

“soluble extracellular domain of the neonatal Fc receptor (FcRnECD), heterodimer of α-chain and β2m, from insect cells (complex)”: the stoichiometry N in assay [3] was 2.

For the molecule `CC(=O)C1=C(C)Nc2ncnn2C1c1cccc(F)c1` (racemic) [UCB-FcRn-84, 1-[7-(3-fluorophenyl)-5-methyl-4,7-dihydro-[1,2,4]triazolo[1,5-a]pyrimidin-6-yl]ethanone], the pKd in assay [4] is ~4.10.
